{
  "source": "paper PMC5829251",
  "about": "“NAD^+ analog reveals PARP-1 substrate-blocking mechanism and allosteric communication from catalytic center to DNA-binding domains” (Nature Communications, 2018)",
  "key": {"full-length PARP-1": {"biological_target": "T1, full-length PARP-1 (Homo sapiens, UniProt P09874)", "T1 construct": "Full-length PARP-1 WT (residues 1–1014) was cloned in pET28 vector; made in house; host or cells: E. coli", "T1 sequence (P09874 whole entry, the tested form may be a part)": "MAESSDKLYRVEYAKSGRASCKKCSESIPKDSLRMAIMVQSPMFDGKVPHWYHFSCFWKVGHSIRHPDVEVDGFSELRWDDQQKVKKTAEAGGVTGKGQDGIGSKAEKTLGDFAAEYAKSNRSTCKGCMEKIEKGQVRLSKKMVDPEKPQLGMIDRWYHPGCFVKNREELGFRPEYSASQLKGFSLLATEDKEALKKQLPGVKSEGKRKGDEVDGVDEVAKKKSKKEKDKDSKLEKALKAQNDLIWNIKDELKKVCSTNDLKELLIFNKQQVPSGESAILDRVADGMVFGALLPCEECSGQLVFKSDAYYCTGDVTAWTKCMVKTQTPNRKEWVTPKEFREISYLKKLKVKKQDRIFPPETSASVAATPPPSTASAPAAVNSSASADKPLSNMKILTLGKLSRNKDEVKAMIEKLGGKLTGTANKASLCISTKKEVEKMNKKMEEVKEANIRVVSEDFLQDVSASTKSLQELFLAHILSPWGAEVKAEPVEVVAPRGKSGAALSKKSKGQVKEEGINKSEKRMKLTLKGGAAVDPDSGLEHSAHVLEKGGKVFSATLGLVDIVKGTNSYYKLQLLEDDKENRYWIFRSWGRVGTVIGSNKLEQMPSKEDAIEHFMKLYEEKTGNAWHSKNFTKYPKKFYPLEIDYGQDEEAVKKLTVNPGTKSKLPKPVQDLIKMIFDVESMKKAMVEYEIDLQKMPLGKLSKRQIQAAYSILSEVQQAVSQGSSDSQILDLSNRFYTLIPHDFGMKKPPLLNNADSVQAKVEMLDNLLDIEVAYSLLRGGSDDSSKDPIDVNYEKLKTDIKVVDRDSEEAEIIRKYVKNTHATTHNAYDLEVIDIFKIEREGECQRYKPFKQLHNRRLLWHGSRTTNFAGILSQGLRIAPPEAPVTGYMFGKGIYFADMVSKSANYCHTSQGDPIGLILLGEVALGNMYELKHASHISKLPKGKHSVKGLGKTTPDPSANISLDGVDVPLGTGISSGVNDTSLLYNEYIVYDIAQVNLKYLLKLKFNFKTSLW", "experiment": "Colorimetric assay of full-length PARP-1 DNA-dependent activity", "format": "biochemical", "conditions": "20 nM PARP-1, 40 nM DNA, 50 μM NAD+", "protocol": "The colorimetric assay was performed as described, [28] using 20 nM of protein and 40 nM DNA (18-bp duplex). A mixture of NAD^+ and biotinylated NAD^+ (bio-NAD^+) was used at a 99:1 ratio and a final concentration of 50 µM. Reactions were allowed to proceed for 5 min before quenching. Three independent experiments were performed."}, "PARP-1 CAT domain WT": {"biological_target": "T2, PARP-1 CAT domain WT (Homo sapiens, UniProt P09874)", "T2 construct": "The PARP-1 CAT WT (residues 661–1014) was cloned in pET28 vector; made in house; host or cells: E. coli", "T2 sequence (P09874 661-1014)": "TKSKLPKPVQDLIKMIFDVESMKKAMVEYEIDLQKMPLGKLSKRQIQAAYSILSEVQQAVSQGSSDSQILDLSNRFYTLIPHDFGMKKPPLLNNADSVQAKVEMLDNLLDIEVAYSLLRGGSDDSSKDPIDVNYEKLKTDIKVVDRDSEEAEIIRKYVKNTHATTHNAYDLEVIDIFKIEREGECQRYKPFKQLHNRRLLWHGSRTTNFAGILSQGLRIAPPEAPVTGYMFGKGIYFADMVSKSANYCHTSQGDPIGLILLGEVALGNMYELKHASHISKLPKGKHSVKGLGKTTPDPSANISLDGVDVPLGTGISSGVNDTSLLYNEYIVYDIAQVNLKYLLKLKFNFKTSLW", "experiment": "Differential scanning fluorimetry (DSF), PARP-1 CAT WT", "format": "binding", "conditions": "for TM: Figure 1e, CAT WT 5 μM, TM without compound 51.58, in °C (unit assumed)", "protocol": "(§1) DSF experiments were performed as described, [13] using 5 µM protein, 2.5 µM DNA when indicated and various concentrations of compound (BAD, carba-NAD^+, benzamide, and ADP-ribose) as indicated in Fig. 1 and Fig. 3. Experiments were performed on a Roche LightCycler 480 RT-PCR. Reactions including DNA were performed with a 26- or 28-base pair (bp) unphosphorylated oligonucleotide for PARP-1, a 28-bp 5´-phosphorylated (5´P) oligonucleotide for PARP-2, and a 47-bp oligonucleotide including a central 5´P nick for PARP-3^13 in the following buffer: 25 mM Hepes pH 8.0, 150 mM NaCl, 1 mM EDTA, and 0.1 mM TCEP. Reactions with PARP-3 were conducted at lower ionic strength to allow binding to DNA as described (25 mM Hepes pH 8.0, 50 mM NaCl, 1 mM EDTA and 0.1 mM TCEP)[13]. ΔTM values were calculated by subtracting the TM determined for the protein in the absence of compound from the TM determined in the presence of compound. Experiments were performed in triplicate and a Boltzmann sigmoid was fit to the data to determine the TM values (KaleidaGraph)."}, "PARP-1 CAT ΔHD": {"biological_target": "T3, PARP-1 CAT ΔHD (Homo sapiens, UniProt P09874)", "T3 construct": "a pET28 construct coding for PARP-1 residues 661-1011; made in house; host or cells: E. coli", "T3 sequence (P09874 with tags, fused parts or gaps)": "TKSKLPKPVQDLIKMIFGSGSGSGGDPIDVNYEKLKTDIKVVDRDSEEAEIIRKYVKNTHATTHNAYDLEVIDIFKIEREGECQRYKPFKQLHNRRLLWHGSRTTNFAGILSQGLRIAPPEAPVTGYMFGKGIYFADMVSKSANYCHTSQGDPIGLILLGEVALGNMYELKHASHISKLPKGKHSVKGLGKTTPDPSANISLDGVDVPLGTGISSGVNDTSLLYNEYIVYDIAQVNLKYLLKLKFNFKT", "experiment": "DSF, PARP-1 CAT ΔHD", "format": "binding", "conditions": "for TM: Figure 1e, CAT ΔHD 5 μM, TM without compound 41.26, in °C (unit assumed)", "protocol": "as §1"}, "[1]": {"conditions": "5 μM protein, various amounts of compound"}},
  "data": [
    {"smiles": "Nc1ncnc2c1ncn2C1OC(COP(=O)(O)OP(=O)(O)OCC2OC(O)C(O)C2O)C(O)C1O", "note": "(centres unmarked) [ADP-ribose]", "values": [
      {"measurement": "inhibition of DNA damage-dependent activity of full-length PARP-1", "setting": "full-length PARP-1", "result": "does not inhibit the reaction"},
      {"measurement": "change of apparent TM of PARP-1 CAT WT (evidence of binding)", "setting": "PARP-1 CAT domain WT; [1]", "result": "no evidence of binding"},
      {"measurement": "TM", "setting": "PARP-1 CAT domain WT; compound 25 µM", "result": 51.52},
      {"measurement": "TM", "setting": "PARP-1 CAT domain WT; compound 150 µM", "result": 51.61},
      {"measurement": "TM", "setting": "PARP-1 CAT domain WT; compound 750 µM", "result": 51.56},
      {"measurement": "TM", "setting": "PARP-1 CAT domain WT; compound 1500 µM", "result": 51.53},
      {"measurement": "change of TM of CAT ΔHD (evidence of binding)", "setting": "PARP-1 CAT ΔHD; [1]", "result": "no evidence of binding"},
      {"measurement": "TM", "setting": "PARP-1 CAT ΔHD; compound 25 µM", "result": 41.46},
      {"measurement": "TM", "setting": "PARP-1 CAT ΔHD; compound 150 µM", "result": 41.57},
      {"measurement": "TM", "setting": "PARP-1 CAT ΔHD; compound 750 µM", "result": 41.43},
      {"measurement": "TM", "setting": "PARP-1 CAT ΔHD; compound 1500 µM", "result": 41.68}
    ]}
  ]
}
